Experiments:
[1] = target: Sodium-dependent noradrenaline transporter (Homo sapiens) (UniProt P23975); settings: Compound concentration 10.0 uM
[2] = target: Mitogen-activated protein kinase 1 (Homo sapiens) (UniProt P28482); settings: Compound concentration 1.0 uM
[3] = target: Dual specificity protein kinase CLK3 (Homo sapiens) (UniProt P49761); settings: Compound concentration 1.0 uM
[4] = target: Epidermal growth factor receptor (Homo sapiens) (UniProt P00533); settings: Compound concentration 1.0 uM
[5] = target: CDK4/Cyclin D3 (Homo sapiens) (UniProt P11802+P30281); settings: Compound concentration 1.0 uM
[6] = target: T1, Activin receptor type-1 (Homo sapiens) (UniProt Q04771); settings: Compound concentration 1.0 uM
T1 sequence (whole entry): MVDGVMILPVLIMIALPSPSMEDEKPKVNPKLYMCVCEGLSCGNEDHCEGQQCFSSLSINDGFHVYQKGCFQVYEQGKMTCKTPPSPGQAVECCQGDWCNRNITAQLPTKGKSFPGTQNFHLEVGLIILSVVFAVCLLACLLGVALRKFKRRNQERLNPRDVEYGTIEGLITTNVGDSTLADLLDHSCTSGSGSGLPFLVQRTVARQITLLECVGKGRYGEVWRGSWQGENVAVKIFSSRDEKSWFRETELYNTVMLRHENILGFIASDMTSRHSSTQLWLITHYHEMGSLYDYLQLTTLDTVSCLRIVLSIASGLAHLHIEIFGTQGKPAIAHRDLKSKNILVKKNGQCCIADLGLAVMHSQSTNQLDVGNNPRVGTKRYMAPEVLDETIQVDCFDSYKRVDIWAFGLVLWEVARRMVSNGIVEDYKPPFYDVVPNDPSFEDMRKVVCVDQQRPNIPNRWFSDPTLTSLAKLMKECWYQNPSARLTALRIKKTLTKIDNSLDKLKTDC

[7] = target: Serine/threonine-protein kinase 10 (Homo sapiens) (UniProt O94804); settings: Compound concentration 1.0 uM
[8] = target: T2, Mitogen-activated protein kinase kinase kinase kinase 3 (Homo sapiens) (UniProt Q8IVH8); settings: Compound concentration 1.0 uM
T2 sequence (whole entry): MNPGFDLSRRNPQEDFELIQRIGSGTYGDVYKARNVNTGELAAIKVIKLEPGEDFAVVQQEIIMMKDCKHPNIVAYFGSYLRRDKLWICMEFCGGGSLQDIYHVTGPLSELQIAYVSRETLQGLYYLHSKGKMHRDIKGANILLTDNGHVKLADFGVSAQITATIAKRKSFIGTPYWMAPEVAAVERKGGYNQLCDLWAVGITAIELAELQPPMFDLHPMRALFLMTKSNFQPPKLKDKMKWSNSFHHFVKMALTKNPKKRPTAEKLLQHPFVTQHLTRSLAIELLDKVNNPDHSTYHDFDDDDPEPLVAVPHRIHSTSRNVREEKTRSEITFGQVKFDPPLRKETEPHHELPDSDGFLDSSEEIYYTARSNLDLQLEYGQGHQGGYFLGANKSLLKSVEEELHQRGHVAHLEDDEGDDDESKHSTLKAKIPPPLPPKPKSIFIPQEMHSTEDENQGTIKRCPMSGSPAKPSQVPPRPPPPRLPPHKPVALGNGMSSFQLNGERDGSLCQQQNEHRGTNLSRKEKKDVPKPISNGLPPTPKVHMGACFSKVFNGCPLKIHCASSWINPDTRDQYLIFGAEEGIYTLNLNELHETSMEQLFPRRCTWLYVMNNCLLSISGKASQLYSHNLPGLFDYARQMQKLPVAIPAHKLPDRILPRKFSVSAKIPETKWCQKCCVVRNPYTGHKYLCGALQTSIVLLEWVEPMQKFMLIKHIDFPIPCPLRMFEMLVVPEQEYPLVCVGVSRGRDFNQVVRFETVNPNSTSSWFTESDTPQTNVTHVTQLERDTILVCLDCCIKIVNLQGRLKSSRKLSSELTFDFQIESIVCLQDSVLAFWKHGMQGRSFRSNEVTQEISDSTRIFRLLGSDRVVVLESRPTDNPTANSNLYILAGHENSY

[9] = target: Insulin receptor (Homo sapiens) (UniProt P06213); settings: Compound concentration 1.0 uM
[10] = target: Death-associated protein kinase 3 (Homo sapiens) (UniProt O43293); settings: Compound concentration 1.0 uM
[11] = target: PI3K p110 beta/p85 alpha (Homo sapiens) (UniProt P27986+P42338); settings: Compound concentration 1.0 uM
[12] = target: Serine/threonine-protein kinase A-Raf (Homo sapiens) (UniProt P10398); settings: Compound concentration 1.0 uM
[13] = target: T3, Ephrin type-B receptor 4 (Homo sapiens) (UniProt P54760); settings: Compound concentration 1.0 uM
T3 sequence (whole entry): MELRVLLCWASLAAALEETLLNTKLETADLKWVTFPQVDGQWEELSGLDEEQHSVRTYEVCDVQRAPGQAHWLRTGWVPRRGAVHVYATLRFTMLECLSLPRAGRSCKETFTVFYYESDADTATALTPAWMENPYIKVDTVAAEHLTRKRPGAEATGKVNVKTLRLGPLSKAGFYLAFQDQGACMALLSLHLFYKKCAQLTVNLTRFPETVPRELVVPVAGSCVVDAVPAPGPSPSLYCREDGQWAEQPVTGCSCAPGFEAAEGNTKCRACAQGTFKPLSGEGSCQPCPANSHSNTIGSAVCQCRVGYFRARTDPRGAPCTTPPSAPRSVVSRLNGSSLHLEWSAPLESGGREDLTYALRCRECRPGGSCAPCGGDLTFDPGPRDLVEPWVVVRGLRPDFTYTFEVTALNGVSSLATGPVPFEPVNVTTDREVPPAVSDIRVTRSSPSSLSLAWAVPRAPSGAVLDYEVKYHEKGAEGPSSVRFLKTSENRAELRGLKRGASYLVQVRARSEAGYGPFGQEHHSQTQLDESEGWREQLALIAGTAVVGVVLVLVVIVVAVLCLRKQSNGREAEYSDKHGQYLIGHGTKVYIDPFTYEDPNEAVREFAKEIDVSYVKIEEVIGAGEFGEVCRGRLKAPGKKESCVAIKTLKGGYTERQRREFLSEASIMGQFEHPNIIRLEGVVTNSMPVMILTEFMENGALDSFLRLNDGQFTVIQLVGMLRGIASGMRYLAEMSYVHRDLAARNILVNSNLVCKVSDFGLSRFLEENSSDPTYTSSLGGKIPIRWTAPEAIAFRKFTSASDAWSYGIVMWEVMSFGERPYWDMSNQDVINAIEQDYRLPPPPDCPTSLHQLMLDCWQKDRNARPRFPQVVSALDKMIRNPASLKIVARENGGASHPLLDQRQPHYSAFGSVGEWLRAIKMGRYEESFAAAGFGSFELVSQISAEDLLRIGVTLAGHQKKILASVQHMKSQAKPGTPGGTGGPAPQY

Chain of Serine/threonine-protein kinase A-Raf (Homo sapiens) (P10398 whole entry): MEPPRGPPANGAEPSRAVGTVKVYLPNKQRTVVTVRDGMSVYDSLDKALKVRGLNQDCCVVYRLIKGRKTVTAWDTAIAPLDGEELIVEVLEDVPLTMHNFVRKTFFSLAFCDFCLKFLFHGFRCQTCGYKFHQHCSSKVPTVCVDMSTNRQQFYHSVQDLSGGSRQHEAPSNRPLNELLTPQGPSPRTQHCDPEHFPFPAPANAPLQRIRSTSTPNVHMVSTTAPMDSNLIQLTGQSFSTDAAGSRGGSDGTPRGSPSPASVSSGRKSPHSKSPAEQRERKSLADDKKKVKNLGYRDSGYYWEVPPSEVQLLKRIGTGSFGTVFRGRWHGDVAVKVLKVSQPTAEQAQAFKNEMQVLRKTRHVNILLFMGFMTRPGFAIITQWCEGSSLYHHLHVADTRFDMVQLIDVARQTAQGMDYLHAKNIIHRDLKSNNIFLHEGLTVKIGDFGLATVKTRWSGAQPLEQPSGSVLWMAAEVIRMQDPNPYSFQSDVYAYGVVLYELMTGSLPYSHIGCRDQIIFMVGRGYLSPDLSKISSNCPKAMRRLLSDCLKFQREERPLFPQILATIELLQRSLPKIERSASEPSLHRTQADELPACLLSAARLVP
Chain of Insulin receptor (Homo sapiens) (P06213 28-758 limits assumed): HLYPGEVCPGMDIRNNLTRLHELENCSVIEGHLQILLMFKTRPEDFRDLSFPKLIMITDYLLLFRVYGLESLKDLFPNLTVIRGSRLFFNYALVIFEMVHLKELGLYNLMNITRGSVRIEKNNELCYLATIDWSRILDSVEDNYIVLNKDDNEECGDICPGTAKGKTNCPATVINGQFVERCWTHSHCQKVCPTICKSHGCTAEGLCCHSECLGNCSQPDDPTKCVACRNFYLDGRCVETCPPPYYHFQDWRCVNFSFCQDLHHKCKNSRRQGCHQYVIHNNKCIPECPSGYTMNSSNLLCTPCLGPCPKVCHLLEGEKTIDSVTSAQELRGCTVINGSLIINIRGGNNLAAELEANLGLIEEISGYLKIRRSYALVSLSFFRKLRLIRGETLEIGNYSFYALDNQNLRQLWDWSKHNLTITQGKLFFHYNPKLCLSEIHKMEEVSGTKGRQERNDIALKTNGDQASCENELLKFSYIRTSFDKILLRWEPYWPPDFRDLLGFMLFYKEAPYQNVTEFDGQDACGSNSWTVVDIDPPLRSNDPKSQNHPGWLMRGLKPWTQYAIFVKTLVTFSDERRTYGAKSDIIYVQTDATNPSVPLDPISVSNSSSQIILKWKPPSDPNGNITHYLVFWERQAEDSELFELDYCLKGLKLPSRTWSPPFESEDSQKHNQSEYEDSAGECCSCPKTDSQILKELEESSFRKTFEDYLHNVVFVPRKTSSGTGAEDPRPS
Chain of Insulin receptor (Homo sapiens) (P06213 763-1382 limits assumed): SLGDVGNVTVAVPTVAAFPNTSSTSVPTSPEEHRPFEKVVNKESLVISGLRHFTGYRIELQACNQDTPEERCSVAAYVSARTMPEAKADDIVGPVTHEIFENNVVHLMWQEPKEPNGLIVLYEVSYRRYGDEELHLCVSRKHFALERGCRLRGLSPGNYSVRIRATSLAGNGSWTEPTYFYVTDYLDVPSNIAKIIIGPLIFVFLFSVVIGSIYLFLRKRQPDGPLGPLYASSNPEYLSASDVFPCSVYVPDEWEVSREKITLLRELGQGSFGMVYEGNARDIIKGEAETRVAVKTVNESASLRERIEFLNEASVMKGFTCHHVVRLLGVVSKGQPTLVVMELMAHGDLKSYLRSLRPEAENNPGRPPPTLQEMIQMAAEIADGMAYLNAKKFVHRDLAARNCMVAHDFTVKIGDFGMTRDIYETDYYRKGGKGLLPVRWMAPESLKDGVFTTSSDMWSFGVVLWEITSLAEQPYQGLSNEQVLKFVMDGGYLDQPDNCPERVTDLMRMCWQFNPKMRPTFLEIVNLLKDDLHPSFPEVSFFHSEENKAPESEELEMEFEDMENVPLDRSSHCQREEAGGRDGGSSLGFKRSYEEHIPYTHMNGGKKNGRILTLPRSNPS
Chain of PI3K p110 beta/p85 alpha (Homo sapiens) (P27986 2-724 limits assumed): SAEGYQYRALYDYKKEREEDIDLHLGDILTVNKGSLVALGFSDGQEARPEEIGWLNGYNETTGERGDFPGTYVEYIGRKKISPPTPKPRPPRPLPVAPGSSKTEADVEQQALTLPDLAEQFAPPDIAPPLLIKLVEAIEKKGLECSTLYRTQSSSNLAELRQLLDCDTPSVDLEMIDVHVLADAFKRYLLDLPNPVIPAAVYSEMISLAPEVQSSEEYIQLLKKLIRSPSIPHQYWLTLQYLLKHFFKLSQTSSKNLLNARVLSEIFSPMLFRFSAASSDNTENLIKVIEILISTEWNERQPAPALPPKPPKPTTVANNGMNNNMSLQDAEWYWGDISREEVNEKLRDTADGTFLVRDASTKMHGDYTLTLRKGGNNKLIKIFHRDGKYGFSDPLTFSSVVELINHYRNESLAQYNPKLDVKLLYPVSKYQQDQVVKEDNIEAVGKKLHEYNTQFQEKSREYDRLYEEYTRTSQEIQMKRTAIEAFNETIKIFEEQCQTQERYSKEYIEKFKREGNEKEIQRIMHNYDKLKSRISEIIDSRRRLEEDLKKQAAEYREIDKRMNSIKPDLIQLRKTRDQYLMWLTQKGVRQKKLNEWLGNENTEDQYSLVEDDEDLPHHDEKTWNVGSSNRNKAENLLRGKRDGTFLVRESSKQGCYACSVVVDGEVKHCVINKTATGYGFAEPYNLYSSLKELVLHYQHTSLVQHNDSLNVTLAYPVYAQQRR
Chain of PI3K p110 beta/p85 alpha (Homo sapiens) (P42338 whole entry partner): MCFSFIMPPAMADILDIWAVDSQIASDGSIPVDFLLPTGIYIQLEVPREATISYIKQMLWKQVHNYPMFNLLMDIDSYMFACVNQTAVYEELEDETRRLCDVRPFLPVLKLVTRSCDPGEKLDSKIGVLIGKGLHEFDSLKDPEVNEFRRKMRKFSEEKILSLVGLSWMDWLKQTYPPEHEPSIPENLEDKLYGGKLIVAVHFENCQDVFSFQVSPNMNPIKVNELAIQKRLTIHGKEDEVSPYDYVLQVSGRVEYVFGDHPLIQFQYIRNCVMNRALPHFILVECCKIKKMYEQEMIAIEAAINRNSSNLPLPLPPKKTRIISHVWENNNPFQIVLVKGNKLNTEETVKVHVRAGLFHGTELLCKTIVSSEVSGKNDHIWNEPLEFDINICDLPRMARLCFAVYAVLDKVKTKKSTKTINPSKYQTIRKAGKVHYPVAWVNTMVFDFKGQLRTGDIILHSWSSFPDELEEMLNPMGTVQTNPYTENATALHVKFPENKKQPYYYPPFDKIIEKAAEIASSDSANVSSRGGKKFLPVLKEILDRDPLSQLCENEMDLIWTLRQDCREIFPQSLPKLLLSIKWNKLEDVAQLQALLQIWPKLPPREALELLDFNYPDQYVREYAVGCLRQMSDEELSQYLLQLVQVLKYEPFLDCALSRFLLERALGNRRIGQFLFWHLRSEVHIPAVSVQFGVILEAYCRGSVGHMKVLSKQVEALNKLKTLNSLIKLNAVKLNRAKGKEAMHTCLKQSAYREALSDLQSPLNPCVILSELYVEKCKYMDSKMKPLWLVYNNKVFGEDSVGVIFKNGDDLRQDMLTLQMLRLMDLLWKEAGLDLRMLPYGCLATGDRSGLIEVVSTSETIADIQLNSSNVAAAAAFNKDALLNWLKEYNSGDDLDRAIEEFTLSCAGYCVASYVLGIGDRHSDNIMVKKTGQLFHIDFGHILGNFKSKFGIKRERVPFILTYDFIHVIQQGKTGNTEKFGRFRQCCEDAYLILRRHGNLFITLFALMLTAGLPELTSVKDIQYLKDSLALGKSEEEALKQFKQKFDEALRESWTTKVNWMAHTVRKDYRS
Chain of Epidermal growth factor receptor (Homo sapiens) (P00533 whole entry): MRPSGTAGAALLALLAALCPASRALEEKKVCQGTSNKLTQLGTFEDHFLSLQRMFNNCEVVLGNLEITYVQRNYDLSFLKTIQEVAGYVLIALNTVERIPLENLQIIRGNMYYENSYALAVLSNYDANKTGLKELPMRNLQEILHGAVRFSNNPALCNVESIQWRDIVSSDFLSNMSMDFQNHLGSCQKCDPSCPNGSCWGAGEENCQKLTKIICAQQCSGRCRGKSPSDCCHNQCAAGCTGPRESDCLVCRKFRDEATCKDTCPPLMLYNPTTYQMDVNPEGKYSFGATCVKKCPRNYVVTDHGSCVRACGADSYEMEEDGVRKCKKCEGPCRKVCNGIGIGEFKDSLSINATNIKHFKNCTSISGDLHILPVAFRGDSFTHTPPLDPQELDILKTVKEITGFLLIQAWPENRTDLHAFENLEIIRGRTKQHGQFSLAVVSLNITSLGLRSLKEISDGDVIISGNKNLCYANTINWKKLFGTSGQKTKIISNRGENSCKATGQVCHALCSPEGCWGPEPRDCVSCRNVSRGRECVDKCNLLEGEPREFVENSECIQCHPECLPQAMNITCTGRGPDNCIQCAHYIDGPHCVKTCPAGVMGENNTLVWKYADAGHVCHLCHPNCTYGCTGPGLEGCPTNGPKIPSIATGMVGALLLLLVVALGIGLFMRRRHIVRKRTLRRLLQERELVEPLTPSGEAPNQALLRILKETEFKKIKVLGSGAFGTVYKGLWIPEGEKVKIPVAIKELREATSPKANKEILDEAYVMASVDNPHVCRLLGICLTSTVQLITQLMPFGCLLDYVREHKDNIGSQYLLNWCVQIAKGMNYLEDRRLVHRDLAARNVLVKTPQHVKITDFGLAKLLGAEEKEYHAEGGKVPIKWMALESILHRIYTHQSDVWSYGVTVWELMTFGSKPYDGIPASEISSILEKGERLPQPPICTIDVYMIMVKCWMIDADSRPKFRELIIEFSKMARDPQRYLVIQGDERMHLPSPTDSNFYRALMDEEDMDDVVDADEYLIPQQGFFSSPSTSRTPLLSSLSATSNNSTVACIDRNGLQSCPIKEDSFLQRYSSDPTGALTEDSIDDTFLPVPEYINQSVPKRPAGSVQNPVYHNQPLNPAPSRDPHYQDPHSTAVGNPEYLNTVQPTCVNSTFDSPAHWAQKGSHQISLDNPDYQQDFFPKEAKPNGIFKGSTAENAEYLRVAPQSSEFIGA

Cc1nc(C2CCN(C(=O)c3ccc(OC(F)(F)F)cc3N)CC2)c2ncc(N3CCN(C)CC3)cc2n1 [BAY-693]
inactive: inhibition [1] 24.6%

CN1CCN(c2cnc3c(C4CCN(C(=O)c5ccc(OC(F)(F)F)cc5N)CC4)ncnc3c2)CC1 [BAY-885]
inactive: % residual kinase activity [2] 107% | % residual kinase activity [3] 111% | % residual kinase activity [4] 105% | % residual kinase activity [5] 106% | % residual kinase activity [6] 98% | % residual kinase activity [7] 114% | % residual kinase activity [8] 102% | % residual kinase activity [9] 99% | % residual kinase activity [10] 111% | % residual kinase activity [11] 98% | % residual kinase activity [12] 96% | % residual kinase activity [13] 103%
